Data reported in ChEMBL document CHEMBL3885881, “DrugMatrix”.

Species on record: Rattus norvegicus
Test: DrugMatrix - Regimen: Daily Repeat
Format: toxicity, organism-based, Sprague-Dawley
Design: regimen Daily Repeat, gender Male, age 6-8 weeks
Conditions: in vivo, po, route oral GAVAGE, vehicle 100 % WATER; for ABSOLUTE BASOPHIL / ABSOLUTE EOSINOPHIL / ABSOLUTE LYMPHOCYTE / ABSOLUTE MONOCYTE / ABSOLUTE SEGMENTED NEUTROPHIL / BASOPHIL / EOSINOPHIL / ERYTHROCYTE COUNT / HEMATOCRIT / HEMOGLOBIN / LEUKOCYTE COUNT / LYMPHOCYTE / MEAN CORPUSCULAR HEMOGLOBIN / MEAN CORPUSCULAR HEMOGLOBIN CONCENTRATION / MEAN CORPUSCULAR VOLUME / MONOCYTE / NEUTROPHIL / NUCLEATED RED BLOOD CELLS / PLATELET COUNT: tissue Blood; for ALANINE AMINOTRANSFERASE / ALBUMIN / ALKALINE PHOSPHATASE / ASPARTATE AMINOTRANSFERASE / BLOOD UREA NITROGEN / CARBON DIOXIDE / CHLORIDE / CHOLESTEROL / CREATINE PHOSPHOKINASE / CREATININE / GLUCOSE / LACTATE DEHYDROGENASE / LIPASE / PHOSPHORUS / POTASSIUM / SODIUM / TOTAL BILIRUBIN / TOTAL PROTEIN / URIC ACID: tissue Plasma
[1] = 0 mg/kg, 72 h, dose level Control, time 3 day
[2] = 0 mg/kg, 120 h, dose level Control, time 5 day
[3] = 11 mg/kg, 72 h, dose level Low, time 3 day

`CNS(=O)(=O)Cc1ccc2[nH]cc(CCN(C)C)c2c1` was tested, and the “ABSOLUTE BASOPHIL” value [1] was 0 CELLS/uL, the “ABSOLUTE EOSINOPHIL” value [1] was 86.33 CELLS/uL and the “ABSOLUTE LYMPHOCYTE” value [1] was 12090.17 CELLS/uL. For the same compound, the “ABSOLUTE MONOCYTE” value [1] was 166.67 CELLS/uL, the “ABSOLUTE SEGMENTED NEUTROPHIL” value [1] was 1090.17 CELLS/uL and the BASOPHIL [1] was 0%. For the same compound, the EOSINOPHIL [1] was 0.67%, the “ERYTHROCYTE COUNT” value [1] was 5.57 x10E6/uL and the HEMATOCRIT [1] was 35.33%. For the same compound, the HEMOGLOBIN [1] was 13.83 G/DL, the “LEUKOCYTE COUNT” value [1] was 13.43 x10E3/uL and the LYMPHOCYTE [1] was 89.83%. The “MEAN CORPUSCULAR HEMOGLOBIN” value [1] was 24.88 pg, the “MEAN CORPUSCULAR HEMOGLOBIN CONCENTRATION” value [1] was 39.15 G/DL and the “MEAN CORPUSCULAR VOLUME” value [1] was 63.52 fL. For the same compound, the MONOCYTE [1] was 1.17%, the NEUTROPHIL [1] was 8.33% and the “NUCLEATED RED BLOOD CELLS” value [1] was 0 /100WBC. For the same compound, the “PLATELET COUNT” value [1] was 1181.33 x10E3/uL, the “ALANINE AMINOTRANSFERASE” value [1] was 48.33 u/L and the ALBUMIN [1] was 4.1 G/DL. For the same compound, the “ALKALINE PHOSPHATASE” value [1] was 395 u/L, the “ASPARTATE AMINOTRANSFERASE” value [1] was 81.83 u/L and the “BLOOD UREA NITROGEN” value [1] was 15.83 mg/dL. For the same compound, the “CARBON DIOXIDE” value [1] was 24.17 mmol/L, the CHLORIDE [1] was 103.83 MEQ/L and the CHOLESTEROL [1] was 63.67 mg/dL. The “CREATINE PHOSPHOKINASE” value [1] was 372.83 u/L, the CREATININE [1] was 0.18 mg/dL and the GLUCOSE [1] was 173.83 mg/dL. For the same compound, the “LACTATE DEHYDROGENASE” value [1] was 188.33 u/L, the LIPASE [1] was 9.5 u/L and the PHOSPHORUS [1] was 11.95 mg/dL. The POTASSIUM [1] was 5.99 MEQ/L, the SODIUM [1] was 144.43 MEQ/L and the “TOTAL BILIRUBIN” value [1] was 0.15 mg/dL. The “TOTAL PROTEIN” value [1] was 5.95 G/DL, the “URIC ACID” value [1] was 1.82 mg/dL and the “ABSOLUTE BASOPHIL” value [2] was 0 CELLS/uL. The “ABSOLUTE EOSINOPHIL” value [2] was 26.67 CELLS/uL, the “ABSOLUTE LYMPHOCYTE” value [2] was 7583.83 CELLS/uL and the “ABSOLUTE MONOCYTE” value [2] was 131.33 CELLS/uL. The “ABSOLUTE SEGMENTED NEUTROPHIL” value [2] was 674.83 CELLS/uL, the BASOPHIL [2] was 0% and the EOSINOPHIL [2] was 0.33%. The “ERYTHROCYTE COUNT” value [2] was 5.78 x10E6/uL, the HEMATOCRIT [2] was 36.48% and the HEMOGLOBIN [2] was 14.03 G/DL. For the same compound, the “LEUKOCYTE COUNT” value [2] was 8.42 x10E3/uL, the LYMPHOCYTE [2] was 89.83% and the “MEAN CORPUSCULAR HEMOGLOBIN” value [2] was 24.3 pg. For the same compound, the “MEAN CORPUSCULAR HEMOGLOBIN CONCENTRATION” value [2] was 38.52 G/DL, the “MEAN CORPUSCULAR VOLUME” value [2] was 63.15 fL and the MONOCYTE [2] was 1.67%. For the same compound, the NEUTROPHIL [2] was 8.17%, the “NUCLEATED RED BLOOD CELLS” value [2] was 0 /100WBC and the “PLATELET COUNT” value [2] was 1186.67 x10E3/uL. For the same compound, the “ALANINE AMINOTRANSFERASE” value [2] was 50.17 u/L, the ALBUMIN [2] was 4.07 G/DL and the “ALKALINE PHOSPHATASE” value [2] was 367.5 u/L. For the same compound, the “ASPARTATE AMINOTRANSFERASE” value [2] was 81.67 u/L, the “BLOOD UREA NITROGEN” value [2] was 16.17 mg/dL and the “CARBON DIOXIDE” value [2] was 32.33 mmol/L. For the same compound, the CHLORIDE [2] was 101.5 MEQ/L, the CHOLESTEROL [2] was 65.33 mg/dL and the “CREATINE PHOSPHOKINASE” value [2] was 255.33 u/L. For the same compound, the CREATININE [2] was 0.17 mg/dL, the GLUCOSE [2] was 139.33 mg/dL and the “LACTATE DEHYDROGENASE” value [2] was 95 u/L. The LIPASE [2] was 10.5 u/L, the PHOSPHORUS [2] was 10.38 mg/dL and the POTASSIUM [2] was 6.11 MEQ/L. For the same compound, the SODIUM [2] was 145.55 MEQ/L, the “TOTAL BILIRUBIN” value [2] was 0.17 mg/dL and the “TOTAL PROTEIN” value [2] was 5.98 G/DL. For the same compound, the “URIC ACID” value [2] was 0.93 mg/dL, the “ABSOLUTE BASOPHIL” value [3] was 0 CELLS/uL and the “ABSOLUTE EOSINOPHIL” value [3] was 39 CELLS/uL. For the same compound, the “ABSOLUTE LYMPHOCYTE” value [3] was 10656.67 CELLS/uL, the “ABSOLUTE MONOCYTE” value [3] was 38.67 CELLS/uL and the “ABSOLUTE SEGMENTED NEUTROPHIL” value [3] was 1065.67 CELLS/uL. The BASOPHIL [3] was 0%, the EOSINOPHIL [3] was 0.33% and the “ERYTHROCYTE COUNT” value [3] was 5.76 x10E6/uL. For the same compound, the HEMATOCRIT [3] was 36.33%, the HEMOGLOBIN [3] was 13.93 G/DL and the “LEUKOCYTE COUNT” value [3] was 11.8 x10E3/uL. The LYMPHOCYTE [3] was 90.33%, the “MEAN CORPUSCULAR HEMOGLOBIN” value [3] was 24.2 pg and the “MEAN CORPUSCULAR HEMOGLOBIN CONCENTRATION” value [3] was 38.37 G/DL. For the same compound, the “MEAN CORPUSCULAR VOLUME” value [3] was 63.07 fL, the MONOCYTE [3] was 0.33% and the NEUTROPHIL [3] was 9%. For the same compound, the “NUCLEATED RED BLOOD CELLS” value [3] was 0 /100WBC, the “PLATELET COUNT” value [3] was 1289 x10E3/uL and the “ALANINE AMINOTRANSFERASE” value [3] was 45 u/L. For the same compound, the ALBUMIN [3] was 3.83 G/DL, the “ALKALINE PHOSPHATASE” value [3] was 321.33 u/L and the “ASPARTATE AMINOTRANSFERASE” value [3] was 76.67 u/L. For the same compound, the “BLOOD UREA NITROGEN” value [3] was 14.67 mg/dL, the “CARBON DIOXIDE” value [3] was 26 mmol/L and the CHLORIDE [3] was 103.33 MEQ/L. The CHOLESTEROL [3] was 64.67 mg/dL, the “CREATINE PHOSPHOKINASE” value [3] was 413.33 u/L and the CREATININE [3] was 0.14 mg/dL. For the same compound, the GLUCOSE [3] was 155 mg/dL, the “LACTATE DEHYDROGENASE” value [3] was 166.33 u/L and the LIPASE [3] was 8.67 u/L. It also gave a PHOSPHORUS [3] of 12.6 mg/dL, a POTASSIUM [3] of 6.24 MEQ/L and an SODIUM [3] of 143.73 MEQ/L. For the same compound, the “TOTAL BILIRUBIN” value [3] was 0.17 mg/dL, the “TOTAL PROTEIN” value [3] was 5.63 G/DL and the “URIC ACID” value [3] was 1.4 mg/dL.
